Experimental data as given in US9670162B2, “Mitochondrial aldehyde dehyrogenase-2 modulators and methods of use thereof” (The Board of Trustees of the Leland Stanford Junior …, priority 2013, dated 2017).

Assays:
[1] = target: CYP3A4 (Homo sapiens, UniProt P08684); assay: Cyp inhibition 3A4; assay type: in vitro ADME; set-up: inhibition: dose or concentration left out as unconfirmed
Protocol: In vitro ADMET of compounds of the present disclosure was carried out according to known methods in the art. Below are data for certain compounds of the present disclosure.

[2] = system: ALDH-2 (or mutant) enzyme; assay: Rate of 4-HNE oxidation by ALDH-2; assay type: biochemical; settings: 4-HNE substrate, O.D. 340 nm, 25° C.
Protocol: The effect of compound 161 on the rate of 4-HNE oxidation by ALDH-2 was carried out by methods known in the art. To each well of a 96-well flat bottom UV plate, the following reagents were sequentially added by pipetting:
50 μl of 100 mM sodium pyrophosphate decahydrate (NaPPi, pH 8.4)
25 μl of 10 mM nicotinamide adenine dinucleotide hydrate (NAD)
1 μl of 20 mM testing compound DMSO solution
The plate was then put on a shaker to mix the cocktails in wells. After 5 minutes of mixing, 1 ul of ALDH-2 (or mutant) enzyme was added to each well with the reagent cocktail. DMSO was used as blank control in the plate. The plate was again put on shaker for another 5 minutes of shaking to enhance bonding between testing compounds and the enzyme.
1 ul of 30 mM 4-HNE in water was then added to each of wells containing the above reaction mixture. After a short vigorous mixing, the UV plate was fed into a plate reader to measure kinetic optical density (O.D.) at wavelength 340 nm at 25° C. over 4 minutes. Each point of measurement was taken at a time interval of 40 seconds.

Sequence of CYP3A4 (P08684 whole entry): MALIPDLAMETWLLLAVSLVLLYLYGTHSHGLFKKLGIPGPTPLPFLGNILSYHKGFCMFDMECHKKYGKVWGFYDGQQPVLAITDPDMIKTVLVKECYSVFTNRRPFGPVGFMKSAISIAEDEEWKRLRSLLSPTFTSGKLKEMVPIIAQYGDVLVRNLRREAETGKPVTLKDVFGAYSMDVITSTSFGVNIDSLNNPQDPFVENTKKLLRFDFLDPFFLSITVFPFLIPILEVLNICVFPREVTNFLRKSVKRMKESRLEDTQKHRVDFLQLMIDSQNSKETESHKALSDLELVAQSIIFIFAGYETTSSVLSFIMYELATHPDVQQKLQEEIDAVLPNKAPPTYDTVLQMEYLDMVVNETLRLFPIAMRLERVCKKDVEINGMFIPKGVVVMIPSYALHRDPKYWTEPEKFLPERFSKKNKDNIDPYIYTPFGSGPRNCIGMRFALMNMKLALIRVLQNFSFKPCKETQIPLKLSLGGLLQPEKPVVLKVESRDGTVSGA

## COc1ccc(CNC(=O)c2c(Cl)ccnc2OCC2CC2)cc1F [Compound 161]
[1]
  inhibition: 15%
[1]; 10 μM
  inhibition at 10 µM: 14.9%
[2]
  rate of 4-HNE oxidation by ALDH-2: accelerate the rate of 4-HNE oxidation
